Assay results as given in patent publication US8461362B2, “Protein phosphatase 2A-activating agents” (The Ohio State University Research Foundation, priority 2009, dated 2013).
pIC50: −log10 of the molar value. Like-named read-outs stand apart in the source and are kept apart here.

Legend:
Type in all cases: cell-based
[1] = tested on: AR and its target gene product PSA in LNCaP cells; test: Western blot of AR and PSA expression in LNCaP cells; conditions: LNCaP cells, 72 h of incubation, 2.5% FBS, Western blot, read-out: concentration reducing expression of AR and PSA by 50%
Description: (§1) Cells cultured in T25 flasks were collected by scraping, and cell pellets were washed once with PBS. Cells were lysed in a lysis buffer consisting of 1% SDS, 10 mM EDTA and 50 mM Tris-HCl, pH 8.1, in the presence of a commercial protease inhibitor cocktail from Aldrich-Sigma (2 mM AEBSF, 1 mM EDTA, 130 μM bestatin, 14 μM E-64, 1 μM leupeptin, and 0.3 μM aprotinin). Following a 10-sec sonication using 20% output in a Virsonic 300 sonicator (Virtis, Gardiner N.Y.) to disrupt cellular organelles and genomic DNA, cell lysates were centrifuged at 15,200×g for 15 minutes. One μL of the suspension was used for protein determination using a colorimetric BCA assay (Pierce, Rockford, Ill.), and to the remaining solution was added an equivalent volume of 2×SDS-polyacrylamide gel electrophoresis sample loading buffer (62.5 mM Tris-HCl, pH 6.8, 4% SDS, 5% β-mercaptoethanol, 20% glycerol, and 0.1% bromophenol blue), and boiled for 5 min. Equal amounts of proteins were resolved in 8% SDS-polyacrylamide gels, and transferred to nitrocellulose membranes using a semidry transfer cell. The transblotted membrane was washed twice with Tris-buffered saline containing 0.1% Tween 20 (TBST). After blocking with TBST containing 5% nonfat milk for 40 min, the membrane was incubated with the appropriate primary antibody in TBST-1% nonfat milk at 4° C. overnight. All primary antibodies were diluted 1:1000 in 1% nonfat milk-containing TBST. After treatment with the primary antibody, the membrane was washed three times with TBST for a total of 15 min, followed by incubation with goat anti-rabbit or anti-mouse Immunoglobulin G (IgG)-horseradish peroxidase conjugates (diluted 1:2000) for 1 h at room temperature and four washes with TBST for a total of 1 h. The immunoblots were visualized by enhanced chemiluminescence.

[2] = tested on: Sp1 binding to AR promoter; test: ChIP assay of Sp1 binding to AR promoter in LNCaP cells; conditions: 72 h
Description: Chromatin Immunoprecipitation (ChIP).
After drug treatment, LNCaP cells (2×10^7) in 50 mL of PBS were cross-linked with 1.35 mL of 37% formaldehyde (final concentration 1%) for 15 min at room temperature. Glycine solution (1 mol/L) was added to a final concentration of 125 mmol/L to stop the cross-linking reaction. Cells were harvested and washed twice with 5 mL of PBS, and the cell pellets were lysed in a ChIP lysis buffer containing (50 mM HEPES-KOH at pH 7.5, 140 mM NaCl, 1% Triton X-100, 0.1% sodium deoxycholate, 2 mM AEBSF, 1 mM EDTA, 130 μM bestatin, […], 1 μM leupeptin, and 0.3 μM aprotinin). The suspension was sonicated at 20% output in a Virsonic 300 sonicator with 6 sets of 10-sec pulses (resulting in an average fragment size of 0.8-0.2 kb) and centrifuged for 10 min at 15,000×g at 4° C. One-μL aliquots of the transparent supernatants were taken for determining protein concentrations by BCA assays. Immunoprecipitation was carried out as described above. Aliquots of 1 mg proteins were used for immunoprecipitation using 4 μg of anti-Sp1 antibody followed by protein A/G agarose beads. […]

Sp1 = Sp1 protein expression, stability and ubiquitination in LNCaP cells; conditions: for Sp1 protein half-life relative to DMSO control / Sp1 protein expression: LNCaP cells; for Sp1 ubiquitination: LNCaP cells expressing HA-ubiquitin and Flag-Sp1, 24 h; for Sp1 protein expression: Western blot
Description: as §1
LNCaP cells were co-transfected with 5 μg each of Flag-Sp1 and HA-ubiquitin plasmids in an Amaxa Nucleofector using a LNCaP-specific nucleofector kit. These transiently transfected cells were seeded in 6-well plates at 2×10^5 per well. After 48-h incubation, cells were exposed to VES or TS-1 at the indicated concentration for 48 h, and lysed by a radioimmunoprecipitation assay lysis buffer (Santa Cruz Biotechnology) in the presence of a freshly prepared cocktail of phosphatase and protease inhibitors (2 mmol/L AEBSF, 1 mM EDTA, 130 μM bestatin, 14 μM E-64, 1 μM leupeptin, and 0.3 μM aprotinin, 2 mM imidazole, 1 mM sodium fluoride, 1.15 mM sodium molybdate, 1 mM sodium orthovanadate, and 4 mmol/L sodium tartrate dihydrate). After centrifugation at 13,000×g for 15 min, the supernatants were collected, preincubated with protein A/G agarose (Santa Cruz Biotechnology) for 15 min, and centrifuged at 1,000×g for 5 min. Supernatant (20 μL) were stored at 4° C. to be used as input, whereas the remaining supernatant was exposed to 4 μg of anti-Sp1 antibodies at 4° C. for 12 h, followed by protein A/G agarose beads at 4° C. for another 2 h. After brief centrifugation, immunoprecipitates were collected, washed with the aforementioned lysis buffer four times, suspended in 2×SDS sample buffer, and subjected to Western blot analysis with antibodies against HA and Flag.

LNCaP cells = test: MTT viability assay, LNCaP cells
Description: LNCaP androgen-dependent (p53^+/+) and PC-3 androgen-nonresponsive (p53^−/−) prostate cancer cells were purchased from the American Type Culture Collection (Manassas, Va.), and cultured in RPMI 1640 medium containing 10% heat-inactivated FBS. […] All cell types were cultured at 37° C. in a humidified incubator containing 5% CO2. Cells in log phase growth were harvested by trypsinization for use in the MTT viability assay. LNCaP cells were plated in poly-D-lysine coated culture flasks in order to assist cell adherence to the surface. Prior to drug treatment, cells were plated in a density of 12,000 cells/cm^2 surface area in the respective culture medium for 24-48 h, followed by individual test agents in 2.5% FBS-supplemented RPMI medium.

| SMILES | pIC50 ([1]; Homo sapiens) | Sp1 binding to AR promoter [2] | Sp1 protein half-life relative to DMSO control (Sp1) | Sp1 ubiquitination (Sp1) | Sp1 protein expression (Sp1) | cell viability of LNCaP cells (LNCaP cells) | pIC50 [1] |
| --- | --- | --- | --- | --- | --- | --- | --- |
| Cc1c(C)c2c(c(C)c1OC(=O)CCC(=O)O)CCC(C)(CCCC(C)CCCC(C)C)O2 (stereo not drawn) [TS-1, succinic acid mono-[2-(4,8-dimethyl-nonyl)-2,5,7,8-tetramethylchroman-6-yl]ester] | 5.30 | diminished the Sp1 binding to AR promoter in a dose-dependent manner | shortened half-life | increased the extent of Sp1 ubiquitination | reduce Sp1 levels | suppressing the cell viability |  |
| Cc1c(C)c2c(c(C)c1OC(=O)CCC(=O)O)CC[C@@](C)(CCC[C@H](C)CCC[C@H](C)CCCC(C)C)O2 [VES, α-tocopheryl succinate] |  | diminished the Sp1 binding to AR promoter in a dose-dependent manner | shortened half-life | increased the extent of Sp1 ubiquitination | reduce Sp1 levels | suppressing the cell viability | ≤ 5.00 |
